Assay: gradient 5% acetonitrile 3 min, to 50% in 2 min, to 85% in 15 min, held 3 min, 100 µL/min
Settings: column: Zorbax Extend-C18 2.1 x 50 mm; eluents: water / acetonitrile, 0.1% formic acid
In short: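 Mixtures of ~100 pure standards were chromatographed on a Zorbax Extend-C18 column (2.1 × 50 mm, 1.8 μm) at 100 μL/min using water and acetonitrile, each with 0.1% formic acid. Detection used a quadrupole time-of-flight mass spectrometer in positive and negative ionization mode, and data collection spanned 3 months. Retention time was obtained from adduct peaks picked computationally and each checked manually.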

| Structure (SMILES) | RP-LC retention time [s] |
| --- | --- |
| O=c1c(=O)n(-c2ccccc2)ccn1Cc1nc(-c2cccc(C(F)(F)F)c2)no1 | 902 |
| CCC(=O)N(C)CCc1noc(-c2ccc(C(=O)NCCC(C)C)cc2)n1 | 806 |
| Cc1cnn(CC(=O)N2CC(n3cc(COc4ccc(F)cc4)nn3)C2)c1 | 714 |
| COc1ccccc1-c1csc(-c2nnn(-c3ccc(Cl)cc3)c2N)n1 | 1190 |
| CC(C)CN1CCn2cc(S(=O)(=O)NCc3ccc(F)c(Cl)c3)cc2C1=O | 855 |
| CS(=O)(=O)N1CCCc2cc(C(=O)NCc3ccc4c(c3)OCO4)ccc21 | 779 |
| Cc1nc2ccccc2c(=O)n1Cc1noc(C(=O)NCCC2=CCCCC2)n1 | 915 |
| Cc1sc2nc(SCc3ccc(C(=O)NCCO)cc3)[nH]c(=O)c2c1C | 647 |
| Cc1cccc(N2CCN(c3ccc4cc(S(=O)(=O)N5CCOCC5)ccc4n3)CC2)c1C | 1080 |
| CCOC(=O)c1noc2nc(C)nc(NCCCN(C)c3ccccc3)c12 | 897 |
| Cc1nc(CCNS(=O)(=O)Cc2cccc(Cl)c2)no1 | 792 |
| CC(CCc1ccccc1)NC(=O)c1cc2sccc2n1Cc1ccc(F)cc1 (stereo not given) | 1190 |
| COC(=O)C(CCSC)NC(=O)c1cc2c(n(-c3ccc(Cl)cc3)c1=O)CC(C)(C)CC2=O (stereo not given) | 1040 |
| Cc1nn(CC(=O)NCCC(C)C)c(=O)c2nc(-c3ccccc3)sc12 | 871 |
| COc1cccc(N2CCN(C(=O)Cn3ccc4c(SCc5ccccc5)nccc43)CC2)c1 | 775 |
| Cc1ccccc1CC(=O)N1CCC2(CC1)NC(=O)c1cc(F)ccc1N2C | 787 |
| CN(C)S(=O)(=O)c1ccc(-c2nnc(C(=O)N3CCCC3)o2)cc1 | 727 |
| CN(C)CC(O)Cn1c2ccc(Br)cc2c2cc(Br)ccc21 (stereo not given) | 782 |
| CCn1cc(C)c(C(=O)O)c1CC(=O)N1CCc2ccccc2C1 | 780 |
| CCn1cnc(S(=O)(=O)N2CCC(C(=O)NCc3ccc(C)cc3)CC2)c1 | 797 |
| CC(C)Cn1cc(NC(=O)N2CCN(c3ccccn3)CC2)c2ccccc2c1=O | 573 |
| Cc1ccc(-c2csc3c(=O)n(CC(=O)N4CCOc5ccc(C)cc54)cnc23)cc1 | 1120 |
| Cn1c(CC2CCN(S(=O)(=O)Cc3cccc(Cl)c3)C2)nc2cccnc21 (stereo not given) | 656 |

| Structure (SMILES) | RP-LC retention time [s] |
| --- | --- |
| Cc1ccc(S(=O)(=O)N2CCC(c3nc(-c4ccccn4)no3)CC2)cc1C | 970 |
| COc1ccc(-c2nc(N(CC(C)C)CC(C)C)c3ccccc3n2)cc1 | 1020 |
| Cc1ccc(Sc2nccnc2N2CCC(C(=O)N3CCN(c4cccc(C)c4)CC3)CC2)cc1 | 1310 |
| FC(F)Sc1ccc(-c2cn3cc(Cl)ccc3n2)cc1 | 841 |
| CCc1cc(-c2csc(S(=O)(=O)Nc3ccc(C)cc3Br)c2)on1 | 1050 |
| CCOC(=O)Cc1ccc(NC(=O)N2CCN(c3ccc(=O)n(-c4ccc(F)cc4)n3)CC2)cc1 | 789 |
| Cc1cc(NCc2ccccn2)n2ncnc2n1 | 562 |
| Cc1cccc(-c2noc(CN3N=NC4C(=O)N(c5ccc(C(C)C)cc5)C(=O)C43)n2)c1 (stereo not given) | 1150 |
| CCCCn1cc(S(=O)(=O)Nc2ccc(Cl)cc2F)c2cccnc21 | 1020 |
| O=C(CC1CCCC1)N1CCCC(c2nn[nH]n2)C1 (stereo not given) | 660 |
| COc1ccc(-c2cn3c(CC(=O)Nc4cccc(C#N)c4)csc3n2)cc1 | 756 |
| Cc1noc(-c2nc(Cc3cccc(F)c3)no2)n1 | 940 |
| CCn1c(=O)c2c(cc(C)n2C)n(CC(=O)Nc2ccc(F)cc2)c1=O | 780 |
| Cc1ccc(-c2nnc(SCc3noc(CCC(=O)Nc4nccs4)n3)o2)cc1 | 816 |
| CC(C)CCCC(C)N (stereo not given) | 641 |
| COc1ccc2oc(-c3csc(NC(=O)c4ccc([N+](=O)[O-])s4)n3)cc2c1 | 1110 |
| Cc1noc(-c2ccnc(-n3ncc(C(=O)N4CCC(C)CC4)c3C)c2)n1 | 946 |
| CCN1CCOc2ccc(NC(=O)c3ccc4c(c3)OCO4)cc2C1=O | 675 |
| Cc1cc(NC(=O)CCc2nc(-c3ccc(N4CCCC4)cc3)no2)ccc1Br | 1230 |
| COc1ccc(Cl)cc1NC(=O)CSc1nccc(N2CCN(c3cc(C)ccc3C)CC2)n1 | 1160 |
| O=C1C(N2CCN(S(=O)(=O)c3ccc(Cl)s3)CC2)CCN1Cc1ccccn1 (stereo not given) | 613 |
| CC1(CNC(=O)c2ccc(Br)cc2)CCOCC1 | 784 |
| Cc1ccc(Nc2c(-c3c(F)cccc3Cl)nc3ccc(C)cn23)cc1 | 773 |

| Structure (SMILES) | RP-LC retention time [s] |
| --- | --- |
| COc1ccc(-c2c(C(=O)O)nnn2-c2ccc(OC)c(OC)c2)cc1 | 712 |
| Cc1sc(NC(=O)Cn2c(=O)sc3ccccc32)nc1-c1ccccc1 | 980 |
| CC(C)CN(CC(C)C)c1nc(-c2ccc(C(C)(C)C)cc2)nc2ccccc12 | 1240 |
| CC(C)c1ccc(NC(=O)C2CCCN(c3ccc(=O)n(-c4cccc(Cl)c4)n3)C2)cc1 (stereo not given) | 1120 |
| O=C(c1cnccn1)N1CCC(F)(F)C(COCC2CC2)C1 (stereo not given) | 786 |
| O=C(NC1CC1)c1cc2cc(Cl)ccc2[nH]1 | 809 |
| Cc1cc(C)n(-c2nc(C)c(C(=O)N3CCc4ccccc4C3)s2)n1 | 1090 |
| Cc1nc2cc(-c3noc(COc4ccc(F)cc4)n3)ccc2o1 | 994 |
| COCCCNC(=O)N1CCCCCC1c1cccc(C)c1 (stereo not given) | 910 |
| COc1ccc(Cn2c(C)c(CNCc3ccc(C)o3)c(C(=O)O)c2C)cc1 | 714 |
| CCc1ccc(-c2cc3c(=O)n(Cc4noc(CN5CCCC(C)C5)n4)ccn3n2)cc1 (stereo not given) | 726 |
| Cc1ccc(NC(=O)NCCn2c(-c3ccncc3)nc3cccnc32)c(C)c1 | 641 |
| O=C(NCCc1ccc(N2CCCC2)cc1)C(=O)Nc1ccc2c(c1)OCCO2 | 844 |
| O=C(NCC1CCN(C(=O)c2cc3ccccc3o2)CC1)Nc1c(F)cccc1F | 729 |
| O=C(Nc1cccnc1)c1ccc(Cl)c(S(=O)(=O)N2CCOCC2)c1 | 589 |
| COc1ccc(Nc2nccc(NCCO)n2)cc1 | 610 |
| CCn1c(CCNC(=O)c2ccc(OC)nc2)nc2cccnc21 | 732 |
| CCC(=O)Nc1ccc(-n2cnc(C(=O)NC(C)c3ccccc3)c2)nc1 (stereo not given) | 722 |
| COc1ccccc1NC(=O)C1CCCN(c2ncnc3c2nc2n3CCCCC2)C1 (stereo not given) | 805 |
| CCC(CC)CN1CCC(n2c(C)cnc2-c2ccccc2)C1 (stereo not given) | 559 |
| COc1ccc(CNC(=O)N2CCC(OC3CCN(S(C)(=O)=O)CC3)CC2)cc1 | 699 |
| O=C(NCCN1CCN(C(=O)c2ccc(Br)cc2)CC1)C(=O)NCc1ccco1 | 626 |
| Cc1ccc(Cl)cc1N1CCN(C(=O)Cn2nc(C(=O)N3CCCC3)c3ccccc32)CC1 | 1010 |

| Structure (SMILES) | RP-LC retention time [s] |
| --- | --- |
| CN(C)[C@@H]1CN(C(=O)c2ccc(F)c(F)c2)C[C@H]1CO | 531 |
| O=C(Nc1ccccc1)C1CCCN(c2nccnc2Sc2ccccc2)C1 (stereo not given) | 1060 |
| Cc1cc(C)c2c(N3CCCCC3)nc(C(=O)NCC3CCCO3)nc2n1 (stereo not given) | 621 |
| O=C(CN1CCN(Cc2ccccc2)C1=O)N1CCN(c2ccccc2)CC1 | 788 |
| Cn1nccc1C(=O)N1CCN(c2nc3c(S(C)(=O)=O)cccc3s2)CC1 | 656 |
| Cc1nc(-c2ccc3c(c2)CCN3C(=O)c2cccs2)cs1 | 953 |
| COc1ccc(-c2noc(C3CCCN3C(=O)C3CC3)n2)cc1 (stereo not given) | 816 |
| CS(=O)(=O)N1CCCc2ccc(NS(=O)(=O)c3ccc(Cl)s3)cc21 | 849 |
| CCN(CC)C(=O)c1ccc2nc(-c3ccc(C)cc3)cn2c1 | 649 |
| Cc1ccc(CNC(=O)c2nc(-c3ccnc(N4CCCCC4)c3)no2)o1 | 756 |
| O=C(Cc1csc2nc(-c3ccccc3)cn12)N1CCN(c2cccc(Cl)c2)CC1 | 949 |
| COc1ccc(-c2nc3ccccc3c3nnc(SCc4cn5ccccc5n4)n23)cc1 | 742 |
| COc1ccc(-c2nc3cnccn3c2Nc2cccc(Cl)c2)cc1OC | 817 |
| Cc1ccoc1C(=O)N1C[C@@H](CO)[C@H](c2nc(C3CC3)no2)C1 | 688 |
| COc1ccc(S(=O)(=O)N2CCC(c3nc(C(=O)N4CCOCC4)c(C)o3)CC2)cc1 | 752 |
| COC(=O)Cn1c(C)cc(=O)c2cccc(F)c21 | 549 |
| CC(C)n1cnc(S(=O)(=O)N2CCC(C(=O)N3CCN(c4ccc(Cl)cc4)CC3)CC2)c1 | 865 |
| O=C(/C=C/c1ccccc1)NC(NC(=S)Nc1ccc(Cl)cc1)C(Cl)(Cl)Cl (stereo not given) | 1030 |
| COc1ccc(-c2cc3c4nnc(CCC(=O)N5CCN(c6ccccn6)CC5)n4ccn3n2)cc1 | 605 |
| O=C(Nc1cccc(N2CCCS2(=O)=O)c1)Nc1cccs1 | 696 |
| O=C(CN1C(=O)COc2ccc(C(=O)N3CCN(c4ccc(F)cc4)CC3)cc21)N1CCCC1 | 736 |
